Data published in PMC9101188, “Human α-Defensin-6 Neutralizes Clostridioides difficile Toxins TcdA and TcdB by Direct Binding” (International Journal of Molecular Sciences, 2022).

What was measured:
CaCo-2 cells [1] = test system: CaCo-2 cells
Rac1 [2] = assay type: cell-based, African green monkey
TcdB autoprotease domain = test: In vitro autoprocessing of TcdB (InsP6-induced autoprotease activity); assay type: biochemical, C. difficile VPI 10463; conditions: TcdB 2 µg, InsP6 1 mM; α-def-6 3 µM, 9 µM; 1 h, 37 °C, pH 7.4; SDS-PAGE, Coomassie (n = 2)
Description: (§1) The flow rate was 25 µL/min. […] A representative gel is shown (n = 2). […] GAPDH served as the loading control. A representative Western blot is shown.
The effects of α-def-6 on TcdB autoprocessing by its intrinsic cysteine protease activity were analyzed. […] Inositol hexakisphosphate (1 mM, Santa Cruz Biotechnology, Dallas, TX, USA) was added to the samples to induce autoprocessing. N-Ethylmaleimide (1 mM, Sigma Aldrich by Merck KGaA, Darmstadt, Germany) served as positive control for the inhibition of TcdB-autoprocessing. The reactions were stopped by addition of a Laemmli buffer and heat denaturation (95 °C). For the analysis, the samples were electrophoresed on 8% SDS polyacrylamide gels, and proteins were visualized by Coomassie staining.

Rac1 [3] = assay type: cell-based, African green monkey; remark: listed apart in the source
TcdB glucosyltransferase [4] = test: In vitro glucosylation of Rac1 by TcdB (CaCo-2 lysate, Western blot); assay type: biochemical, C. difficile VPI 10463; conditions: CaCo-2 cell lysate 40 µg, TcdB 50 ng; α-def-6 up to 12 µM; 2 h, 37 °C, pH 7.5; Western blot (n = 4)
Description: as §1
To evaluate the potential effects of α-def-6 on TcdB glucosyltransferase activity, 40 µg of CaCo-2 cell lysate were used as a source of Rac1 and incubated with TcdB (50 ng) in glucosylation buffer (50 mM HEPES, 100 mM KCl, 2 mM MgCl2, 1 mM MnCl2, 100 mg/L BSA, pH 7.5) in a final volume of 20 µL. Two concentrations of α-def-6 (6 µM, 12 µM) were tested. Reactions were allowed to proceed for 2 h at 37 °C and stopped with the addition of a Laemmli buffer and heating for 10 min at 95 °C. The samples were loaded onto a 12.5% polyacrylamide gel and separated via SDS-PAGE followed by Western blotting. Unspecific binding sites were blocked with 5% (w/v) skim milk powder diluted in PBS with 0.1% (v/v) Tween®20 (PBS-T, pH 7.4) for 1 h at RT. The glucosylation status of Rac1 was assessed by probing with a mouse anti-Rac1-antibody (1:500, #610651, BD Biosciences, Franklin Lakes, NJ, USA) specifically directed against non-glucosylated Rac1 overnight at 4 °C. After washing, the membrane was incubated with a secondary horseradish-peroxidase (HRP)-conjugated goat-anti-mouse antibody (1:2500, #31430, Invitrogen by Thermo Fisher Scientific, Waltham, MA, USA) for 1 h at RT. Signals were detected using the ECL-system. […]

CaCo-2 cells [5] = test system: CaCo-2 cells; remark: listed apart in the source
CaCo-2 cells [6] = test system: CaCo-2 cells; remark: listed apart in the source
Vero cells [7] = assay type: cell-based, African green monkey
TcdB glucosyltransferase [8] = test: UDP-Glo glucosyltransferase assay; assay type: biochemical, C. difficile VPI 10463; conditions: TcdB 200 pM, recombinant Rac1 5 µM, UDP-glucose 100 µM, 1 h, 37 °C, pH 7.5, luminescence (n ≥ 3)
Description: as §1
UDP-Glo™ Glucosyltransferase assay with UDP-Glucose (Promega Corporation, Madison, WI, USA) was performed according to the manufacturer’s protocol. Briefly, TcdB (200 pM) was incubated in glucosylation buffer (50 mM HEPES, 100 mM KCl, 2 mM MgCl2, 1 mM MnCl2, 100 mg/L BSA, pH 7.5) with various concentrations of the respective inhibitors in a final volume of 40 µL. 5 µM recombinant Rac1 was included in the samples as a substrate. […] Castanospermine (10 mM, Santa Cruz Biotechnology, Dallas, TX, USA) served as control for inhibition of glucosyltransferase activity of TcdB. To stop the reaction, three times 10 µL of each sample were transferred to a white half area 96 well microplate (Greiner Bio-One International GmbH, Kremsmünster, Austria) combined with 10 µL of UDP Detection Reagent and mixed at 1000 rpm for 30 s on a plate shaker (Titramax 1000, Heidolph Instruments GmbH & Co. KG, Schwabach, Germany). Luminescence was recorded after 15–60 min via a Tecan infinite M1000 Pro plate reader (Tecan, Männdorf, Switzerland) with an integration time of 750 ms.

TcdB [9] = conditions: SPR, 2400 RUs biotinylated TcdB on streptavidin chip; α-def-6 0.1 to 6 µM; 10 mM HEPES, 150 mM NaCl, 50 µM EDTA, 0.005% Tween 20, pH 7.0; 25 µL/min, 25 °C; 4 min injection
Description: (A) 2400 RUs of biotinylated TcdB were immobilized via streptavidin-biotin binding onto a streptavidin sensor chip, and α-def-6 (concentrations as indicated) was applied to the chip for 4 min followed by a dissociation phase with a flow of running buffer. A solution of 6 µM of α-def-6 was injected twice to assess reproducibility, and β-def-1 (6 µM) served as a control. The flow rate was 25 µL/min.
TcdB was biotinylated via EZ-Link^TM Sulfo-NHS-Biotin (Thermo Fisher Scientific, Waltham, MA, USA) according to the manufacturer’s protocol. Briefly, TcdB was incubated with Sulfo-NHS-Biotin for 30 min at room temperature (RT). To remove the excess non-reacted biotin, TcdB was rebuffered with a Zeba^TM Spin Desalting Column (Thermo Fisher Scientific, Waltham, MA, USA). The successful biotinylation was verified via Western blotting and detection with peroxidase-conjugated streptavidin (1:2500, F. Hoffmann-La Roche AG, Basel, Switzerland).
The binding of α-def-6 to biotinylated TcdB was analyzed via surface plasmon resonance spectroscopy (SPR) with a Reichert SPR7500DC SPR spectrometer (Reichert Technologies, Buffalo, NY, USA). All analytes were dialyzed in running buffer (10 mM HEPES, 150 mM NaCl, 50 µM EDTA, 0.005% (v/v) Tween®20, pH 7.0) beforehand. Experiments were performed with a flow rate of 25 µL/min at 25 °C. […]

zebrafish embryos = conditions: in vivo
TcdB [10] = conditions: TcdB 50 ng, α-def-6 6 µM, PBS, 0.5 h, 37 °C (n = 3)
Description: (C) TcdB (50 ng) was incubated with or without α-def-6 (6 µM) in PBS for 0.5 h at 37 °C. Samples were centrifuged to segregate aggregates and divided into a supernatant (S) and pellet (P) fraction. Fractions were subjected to SDS-PAGE followed by Western blotting. TcdB was detected.
The TcdB stock was centrifuged for 20 min at 14,000 rpm and 4 °C to remove any preformed aggregates. TcdB (50 ng) was incubated in the absence or presence of α-def-6 (6 µM) for 30 min at 37 °C in a final volume of 35 µL PBS. The samples were centrifuged as before to segregate possible aggregates and subsequently separated into a supernatant (30 µL) and pellet fraction (5 µL). The pellet fraction was resuspended with 25 µL PBS to a final volume of 30 µL. Each fraction (30 µL) was then subjected to SDS-PAGE (8% polyacrylamide gel) and Western blotting. TcdB was detected using an anti-TcdB-antibody (1:1000, #ab270452, Abcam, Cambridge, UK) followed by an HRP-conjugated mouse anti-rabbit antibody (1:2500; #sc-2357; Santa Cruz Biotechnology, Dallas, TX, USA).

Rac1 [11] = assay type: cell-based, African green monkey; remark: listed apart in the source
SARS-CoV-2 = conditions: ref [55]; cited from earlier work
From the text: There is increasing evidence that α-def-6 represents an outlier among the α-defensins, which is also noticeable in the context of bacterial toxins. Anti-toxin activities have already been described for several α-defensins.

Vero cells [12] = assay type: cell-based, African green monkey; remark: listed apart in the source
Vero cells [13] = test system: Vero cells

In the case of `CC[C@H](C)[C@@H]1NC(=O)CNC(=O)[C@H](CCSC)NC(=O)[C@H](C(C)C)NC(=O)[C@H]([C@@H](C)O)NC(=O)[C@@H]2CSSC[C@@H]3NC(=O)[C@H](Cc4c[nH]cn4)NC(=O)[C@@H](NC(=O)[C@@H](NC(=O)[C@H](Cc4ccccc4)NC(=O)[C@H](C)N)[C@@H](C)O)CSSC[C@@H](C(=O)N[C@@H](CC(C)C)C(=O)O)NC(=O)[C@H](CSSC[C@H](NC(=O)[C@H](CO)NC(=O)[C@H](CCCNC(=N)N)NC(=O)[C@H](CCCNC(=N)N)NC3=O)C(=O)N[C@@H](Cc3ccc(O)cc3)C(=O)N[C@@H](CO)C(=O)N[C@@H]([C@@H](C)O)C(=O)N[C@@H](CCC(=O)O)C(=O)N[C@@H](Cc3ccc(O)cc3)C(=O)N[C@@H](CO)C(=O)N[C@@H](Cc3ccc(O)cc3)C(=O)NCC(=O)N[C@@H]([C@@H](C)O)C(=O)N2)NC(=O)[C@H](Cc2ccccc2)NC(=O)[C@H](CCCNC(=N)N)NC(=O)[C@H](Cc2c[nH]cn2)NC(=O)[C@H](CC(N)=O)NC1=O` [α-def-6], the “amount of rounded CaCo-2 cells, TcdB” value (CaCo-2 cells [1]) is reported as “reduced amount of rounded CaCo-2 cells was visible for at least 6 h”, the “glucosylation of Rac1 by TcdB” value (Rac1 [2]) is reported as “clearly less Rac1 was glucosylated” and the “release of the glucosyltransferase domain by the autoprotease domain (effect of substance)” value (TcdB autoprotease domain) is reported as “not affected”. For the same molecule, the “Rac1 modification by TcdA + TcdB” value (Rac1 [3]) was “diminished the toxin-mediated Rac1-modification”, the “inhibition of enzymatic activity of the glucosyltransferase domain of TcdB” value (TcdB glucosyltransferase [4]) was “almost no inhibition” and the “amount of rounded CaCo-2 cells, TcdA + TcdB” value (CaCo-2 cells [5]) was “reduced amount of rounded CaCo-2 cells was visible for at least 6 h”. The “amount of rounded CaCo-2 cells, TcdA” value (CaCo-2 cells [6]) was “reduced amount of rounded CaCo-2 cells was visible for at least 6 h”, the “inhibition of toxin effects on cells, TcdA” value (Vero cells [7]) was “clear inhibition” and the “protection of cells against TcdA” value (Vero cells [7]) was “clear protection”. For the same molecule, the “inhibition of glucosyltransferase activity of TcdB” value (TcdB glucosyltransferase [8]) was “not able to inhibit glucosyltransferase activity”, the “interaction with immobilized TcdB” value (TcdB [9]) was “direct, concentration-dependent interaction” and the “effect on TcdB-induced cytotoxicity and cardiotoxicity” value (zebrafish embryos) was “very efficiently reversed both the cytotoxic and cardiotoxic effects of TcdB”. The “toxicity of α-def-6 alone” value (zebrafish embryos) was “did not show any toxicity”, the “shift of TcdB to pellet fraction” value (TcdB [10]) was “shift of TcdB from the supernatant to the pellet fraction” and the “glucosylation of Rac1 by TcdA” value (Rac1 [11]) was “clearly less Rac1 was glucosylated”. The “prevention of infection of cells with SARS-CoV-2” value (SARS-CoV-2) was “cannot prevent the infection of cells with SARS-CoV-2”, the “TEER, TcdB” value (CaCo-2 monolayer) was “clear delay in TEER-reduction” and the “cytotoxic effects on the monolayer, TcdB” value (CaCo-2 monolayer) was “time-dependent inhibition of the cytotoxic effects on the monolayer”. The “inhibition of toxin effects on cells, TcdA + TcdB” value (Vero cells [12]) was “clear inhibition”, the “protection of cells against TcdA + TcdB” value (Vero cells [12]) was “clear protection” and the “inhibition of toxin effects on cells, TcdB” value (Vero cells [13]) was “clear inhibition”. For the same molecule, the “protection of cells against TcdB” value (Vero cells [13]) was “almost complete protection”, the “reduction of the amount of rounded cells” value (Vero cells [13]) was “clear concentration-dependent reduction of the amount of rounded cells” and the IC50 (Vero cells [13]; 5 h) was about 500 nM.
